The NIST ThermoML archive (doi:10.1016/j.jct.2019.02.003)
Numbers after ± are expanded uncertainties.

Settings: 84 kPa, Liquid, Pycnometric method

CN(CCO)CCO [N-methyldiethanolamine]
Settings | mass density [kg/m3]
293.15 K | 1041.12 ± 1.9
303.15 K | 1033.6 ± 1.9
313.15 K | 1025.83 ± 1.9
323.15 K | 1017.8 ± 1.9
333.15 K | 1010.8 ± 1.9
343.15 K | 1002.76 ± 1.9
